Assay results published in ChEMBL document CHEMBL4804286, “3-amino-4-(4-(4 (dimethylcarbamoyl) phenyl)-1,4-diazepan-1-yl) thieno [2,3-b] pyridine-2-carboxamide for use in cancer therapy and formulations comprising the same” (2020).
Where “and” joins values, the source holds several entries; their conditions need not be identical. Equal entries are not always repeated.

Columns and labels:
[1] = molecular target: Atypical kinase COQ8A, mitochondrial (Homo sapiens) (UniProt Q8NI60); assay: Inhibition of human ADCK3 assessed as percent of control at 2000 nM by KINOMEscan assay relative to control; design: scale not given: the % may be the effect or the level left
Chain of Atypical kinase COQ8A, mitochondrial (Homo sapiens) (Q8NI60 163-647 limits assumed): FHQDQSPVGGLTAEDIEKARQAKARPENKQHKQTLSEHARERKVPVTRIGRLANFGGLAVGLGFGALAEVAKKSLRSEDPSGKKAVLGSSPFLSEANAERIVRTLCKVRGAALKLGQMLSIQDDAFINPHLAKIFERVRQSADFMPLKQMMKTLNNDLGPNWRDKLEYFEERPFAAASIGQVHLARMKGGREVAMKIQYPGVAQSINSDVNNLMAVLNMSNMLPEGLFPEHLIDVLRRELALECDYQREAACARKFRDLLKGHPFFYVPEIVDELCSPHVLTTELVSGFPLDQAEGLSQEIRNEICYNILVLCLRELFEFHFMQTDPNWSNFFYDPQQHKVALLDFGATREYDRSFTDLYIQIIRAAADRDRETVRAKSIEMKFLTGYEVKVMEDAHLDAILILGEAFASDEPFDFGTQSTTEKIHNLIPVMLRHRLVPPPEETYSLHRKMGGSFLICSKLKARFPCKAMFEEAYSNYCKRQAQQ

[2] = molecular target: Aurora kinase C (Homo sapiens) (UniProt Q9UQB9); assay: Inhibition of human AURKC assessed as percent of control at 2000 nM by KINOMEscan assay relative to control; design: scale not given: the % may be the effect or the level left
Chain of Aurora kinase C (Homo sapiens) (Q9UQB9 whole entry, canonical isoform): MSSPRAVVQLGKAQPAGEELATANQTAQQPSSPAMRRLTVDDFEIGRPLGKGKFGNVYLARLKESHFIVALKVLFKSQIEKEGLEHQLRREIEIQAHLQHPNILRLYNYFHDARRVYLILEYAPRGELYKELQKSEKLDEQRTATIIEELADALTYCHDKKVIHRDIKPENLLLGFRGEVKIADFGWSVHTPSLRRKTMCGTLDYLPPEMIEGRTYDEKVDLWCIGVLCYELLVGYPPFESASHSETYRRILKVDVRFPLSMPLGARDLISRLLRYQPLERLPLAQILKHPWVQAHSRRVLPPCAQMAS

[3] = molecular target: Casein kinase I isoform epsilon (Homo sapiens) (UniProt P49674); assay: Inhibition of human CSNK1E assessed as percent of control at 2000 nM by KINOMEscan assay relative to control; design: scale not given: the % may be the effect or the level left; settings: INHIBITOR
Chain of Casein kinase I isoform epsilon (Homo sapiens) (P49674 whole entry, looked up, canonical isoform): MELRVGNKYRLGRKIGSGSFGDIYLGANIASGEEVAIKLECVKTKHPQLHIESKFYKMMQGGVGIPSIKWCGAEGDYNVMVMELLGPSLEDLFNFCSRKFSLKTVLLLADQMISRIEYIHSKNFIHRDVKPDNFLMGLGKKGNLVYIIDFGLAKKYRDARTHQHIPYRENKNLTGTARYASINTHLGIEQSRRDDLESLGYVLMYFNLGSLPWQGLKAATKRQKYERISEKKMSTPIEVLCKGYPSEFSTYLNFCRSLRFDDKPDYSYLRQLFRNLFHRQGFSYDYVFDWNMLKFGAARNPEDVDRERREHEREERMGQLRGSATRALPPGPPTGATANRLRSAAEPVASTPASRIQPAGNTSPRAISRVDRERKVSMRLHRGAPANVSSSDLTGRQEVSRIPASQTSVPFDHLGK

[4] = molecular target: Casein kinase I isoform gamma-3 (Homo sapiens) (UniProt Q9Y6M4); assay: Inhibition of human CSNK1G3 assessed as percent of control at 2000 nM by KINOMEscan assay relative to control; design: scale not given: the % may be the effect or the level left
[5] = molecular target: Casein kinase II subunit alpha' (Homo sapiens) (UniProt P19784); assay: Inhibition of human CSNK2A2 assessed as percent of control at 2000 nM by KINOMEscan assay relative to control; design: scale not given: the % may be the effect or the level left
[6] = tested on: Epidermal growth factor receptor (Homo sapiens), P00533 [G719C]; assay: Inhibition of human EGFR G719C mutant assessed as percent of control at 2000 nM by KINOMEscan assay relative to control; design: scale not given: the % may be the effect or the level left
[7] = molecular target: Ephrin type-B receptor 2 (Homo sapiens) (UniProt P29323); assay: Inhibition of human EPHB2 assessed as percent of control at 2000 nM by KINOMEscan assay relative to control; design: scale not given: the % may be the effect or the level left
Chain of Ephrin type-B receptor 2 (Homo sapiens) (P29323 whole entry): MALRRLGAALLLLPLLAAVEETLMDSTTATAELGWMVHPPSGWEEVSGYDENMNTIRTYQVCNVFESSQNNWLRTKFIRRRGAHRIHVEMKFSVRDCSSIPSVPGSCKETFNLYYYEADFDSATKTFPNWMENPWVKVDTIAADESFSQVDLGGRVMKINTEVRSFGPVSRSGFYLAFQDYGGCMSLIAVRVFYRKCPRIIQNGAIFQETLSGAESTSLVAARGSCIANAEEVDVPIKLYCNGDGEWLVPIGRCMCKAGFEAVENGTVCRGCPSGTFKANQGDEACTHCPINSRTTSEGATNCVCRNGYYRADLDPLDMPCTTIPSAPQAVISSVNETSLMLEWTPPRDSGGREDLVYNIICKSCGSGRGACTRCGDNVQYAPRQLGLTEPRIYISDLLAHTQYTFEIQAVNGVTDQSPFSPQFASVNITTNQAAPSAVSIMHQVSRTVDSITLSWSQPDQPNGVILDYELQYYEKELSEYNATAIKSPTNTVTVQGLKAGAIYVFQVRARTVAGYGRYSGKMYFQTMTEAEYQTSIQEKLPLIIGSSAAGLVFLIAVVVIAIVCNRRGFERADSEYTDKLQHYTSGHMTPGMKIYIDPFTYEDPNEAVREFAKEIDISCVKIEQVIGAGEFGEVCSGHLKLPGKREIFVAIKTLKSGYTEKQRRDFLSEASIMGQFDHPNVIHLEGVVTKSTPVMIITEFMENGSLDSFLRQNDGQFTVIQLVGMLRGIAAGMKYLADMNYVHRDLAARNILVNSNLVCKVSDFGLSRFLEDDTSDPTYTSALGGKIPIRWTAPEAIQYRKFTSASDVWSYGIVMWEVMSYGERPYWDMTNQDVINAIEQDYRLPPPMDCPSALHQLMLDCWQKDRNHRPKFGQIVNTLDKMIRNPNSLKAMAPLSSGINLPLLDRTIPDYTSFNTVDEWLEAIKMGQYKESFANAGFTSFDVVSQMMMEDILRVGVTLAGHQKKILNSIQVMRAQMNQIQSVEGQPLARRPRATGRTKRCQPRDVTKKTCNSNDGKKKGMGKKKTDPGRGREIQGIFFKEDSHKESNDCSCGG

[8] = tested on: Receptor-type tyrosine-protein kinase FLT3 (Homo sapiens), P36888 [K663Q]; assay: Inhibition of human FLT3 K663Q mutant assessed as percent of control at 2000 nM by KINOMEscan assay relative to control; design: scale not given: the % may be the effect or the level left
[9] = molecular target: Glycogen synthase kinase-3 alpha (Homo sapiens) (UniProt P49840); assay: Inhibition of human GSK3A assessed as percent of control at 2000 nM by KINOMEscan assay relative to control; design: scale not given: the % may be the effect or the level left; settings: INHIBITOR
[10] = molecular target: Tyrosine-protein kinase JAK3 (Homo sapiens) (UniProt P52333); assay: Inhibition of human JAK3 JH1 catalytic domain assessed as percent of control at 2000 nM by KINOMEscan assay relative to control; design: scale not given: the % may be the effect or the level left
[11] = molecular target: Mitogen-activated protein kinase 10 (Homo sapiens) (UniProt P53779); assay: Inhibition of human JNK3 assessed as percent of control at 2000 nM by KINOMEscan assay relative to control; design: scale not given: the % may be the effect or the level left
[12] = tested on: Mast/stem cell growth factor receptor Kit (Homo sapiens), P10721 [V559D,V654A]; assay: Inhibition of human KIT V559D/V654A double mutant assessed as percent of control at 2000 nM by KINOMEscan assay relative to control; design: scale not given: the % may be the effect or the level left
[13] = molecular target: Mitogen-activated protein kinase kinase kinase 2 (Homo sapiens) (UniProt Q9Y2U5); assay: Inhibition of human MAP3K2 assessed as percent of control at 2000 nM by KINOMEscan assay relative to control; design: scale not given: the % may be the effect or the level left
[14] = molecular target: MAP kinase-activated protein kinase 2 (Homo sapiens) (UniProt P49137); assay: Inhibition of human MAPKAPK2 assessed as percent of control at 2000 nM by KINOMEscan assay relative to control; design: scale not given: the % may be the effect or the level left
[15] = molecular target: Dual specificity mitogen-activated protein kinase kinase 7 (Homo sapiens) (UniProt O14733); assay: Inhibition of human MKK7 assessed as percent of control at 2000 nM by KINOMEscan assay relative to control; design: scale not given: the % may be the effect or the level left
[16] = molecular target: Macrophage-stimulating protein receptor (Homo sapiens) (UniProt Q04912); assay: Inhibition of human MST1R assessed as percent of control at 2000 nM by KINOMEscan assay relative to control; design: scale not given: the % may be the effect or the level left
[17] = molecular target: Myosin light chain kinase 2, skeletal/cardiac muscle (Homo sapiens) (UniProt Q9H1R3); assay: Inhibition of human MYLK2 assessed as percent of control at 2000 nM by KINOMEscan assay relative to control; design: scale not given: the % may be the effect or the level left
Chain of Myosin light chain kinase 2, skeletal/cardiac muscle (Homo sapiens) (Q9H1R3 whole entry): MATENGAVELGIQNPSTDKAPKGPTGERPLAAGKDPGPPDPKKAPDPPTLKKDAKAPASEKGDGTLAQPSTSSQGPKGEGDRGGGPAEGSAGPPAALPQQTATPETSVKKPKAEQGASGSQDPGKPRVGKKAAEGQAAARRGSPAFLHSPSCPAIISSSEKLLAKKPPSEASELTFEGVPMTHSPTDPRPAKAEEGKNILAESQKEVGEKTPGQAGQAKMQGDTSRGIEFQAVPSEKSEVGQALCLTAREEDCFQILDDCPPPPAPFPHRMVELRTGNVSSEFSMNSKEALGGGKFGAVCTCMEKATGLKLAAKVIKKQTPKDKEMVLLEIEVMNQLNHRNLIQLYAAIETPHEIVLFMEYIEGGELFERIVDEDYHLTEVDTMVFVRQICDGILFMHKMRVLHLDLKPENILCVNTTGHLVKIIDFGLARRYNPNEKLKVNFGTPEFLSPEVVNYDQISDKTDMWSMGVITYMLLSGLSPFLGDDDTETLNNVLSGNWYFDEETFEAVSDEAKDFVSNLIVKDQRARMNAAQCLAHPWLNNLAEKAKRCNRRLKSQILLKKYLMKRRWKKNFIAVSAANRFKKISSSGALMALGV

[18] = molecular target: Serine/threonine-protein kinase Nek1 (Homo sapiens) (UniProt Q96PY6); assay: Inhibition of human NEK1 assessed as percent of control at 2000 nM by KINOMEscan assay relative to control; design: scale not given: the % may be the effect or the level left
[19] = molecular target: Phosphatidylinositol 5-phosphate 4-kinase type-2 beta (Homo sapiens) (UniProt P78356); assay: Inhibition of human PIP5K2B assessed as percent of control at 2000 nM by KINOMEscan assay relative to control; design: scale not given: the % may be the effect or the level left
Chain of Phosphatidylinositol 5-phosphate 4-kinase type-2 beta (Homo sapiens) (P78356 whole entry): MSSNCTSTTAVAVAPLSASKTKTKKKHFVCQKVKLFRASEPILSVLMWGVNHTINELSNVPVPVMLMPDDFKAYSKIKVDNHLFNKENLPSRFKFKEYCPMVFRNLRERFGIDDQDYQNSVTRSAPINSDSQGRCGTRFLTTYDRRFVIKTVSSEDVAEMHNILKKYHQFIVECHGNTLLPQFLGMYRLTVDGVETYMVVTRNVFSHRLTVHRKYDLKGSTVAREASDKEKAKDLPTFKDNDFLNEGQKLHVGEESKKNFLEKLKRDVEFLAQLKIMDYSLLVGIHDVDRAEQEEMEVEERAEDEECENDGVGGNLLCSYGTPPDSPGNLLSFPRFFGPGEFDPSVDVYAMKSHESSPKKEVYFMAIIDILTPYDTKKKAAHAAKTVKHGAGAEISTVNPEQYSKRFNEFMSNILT

[20] = molecular target: Protein kinase C epsilon type (Homo sapiens) (UniProt Q02156); assay: Inhibition of human PRKCE assessed as percent of control at 2000 nM by KINOMEscan assay relative to control; design: scale not given: the % may be the effect or the level left
Chain of Protein kinase C epsilon type (Homo sapiens) (Q02156 whole entry): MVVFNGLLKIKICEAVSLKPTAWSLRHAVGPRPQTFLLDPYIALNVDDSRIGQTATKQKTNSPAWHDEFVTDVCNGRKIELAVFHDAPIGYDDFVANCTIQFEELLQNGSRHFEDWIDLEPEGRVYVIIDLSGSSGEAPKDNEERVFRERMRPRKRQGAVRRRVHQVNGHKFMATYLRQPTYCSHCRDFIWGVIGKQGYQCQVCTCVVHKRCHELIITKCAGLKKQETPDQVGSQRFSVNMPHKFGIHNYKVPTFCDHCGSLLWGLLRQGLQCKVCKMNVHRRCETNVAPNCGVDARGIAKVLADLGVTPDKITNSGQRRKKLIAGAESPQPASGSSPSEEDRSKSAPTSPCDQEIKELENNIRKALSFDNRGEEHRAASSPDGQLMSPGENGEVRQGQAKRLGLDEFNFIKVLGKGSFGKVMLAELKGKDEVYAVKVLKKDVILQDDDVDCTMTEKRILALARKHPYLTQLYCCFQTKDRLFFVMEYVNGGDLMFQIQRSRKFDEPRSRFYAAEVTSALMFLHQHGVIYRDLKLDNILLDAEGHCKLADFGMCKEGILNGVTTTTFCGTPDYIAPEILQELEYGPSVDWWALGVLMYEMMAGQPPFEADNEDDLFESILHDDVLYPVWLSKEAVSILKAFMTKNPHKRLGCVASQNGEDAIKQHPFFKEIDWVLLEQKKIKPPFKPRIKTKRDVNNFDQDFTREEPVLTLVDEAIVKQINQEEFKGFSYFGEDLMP

[21] = molecular target: Serine/threonine-protein kinase RIO3 (Homo sapiens) (UniProt O14730); assay: Inhibition of human RIOK3 assessed as percent of control at 2000 nM by KINOMEscan assay relative to control; design: scale not given: the % may be the effect or the level left
[22] = molecular target: Ribosomal protein S6 kinase alpha-2 (Homo sapiens) (UniProt Q15349); assay: Inhibition of human C-terminal RSK3 kinase domain 2 assessed as percent of control at 2000 nM by KINOMEscan assay relative to control; design: scale not given: the % may be the effect or the level left
[23] = molecular target: SNF-related serine/threonine-protein kinase (Homo sapiens) (UniProt Q9NRH2); assay: Inhibition of human SNRK assessed as percent of control at 2000 nM by KINOMEscan assay relative to control; design: scale not given: the % may be the effect or the level left
Chain of SNF-related serine/threonine-protein kinase (Homo sapiens) (Q9NRH2 whole entry): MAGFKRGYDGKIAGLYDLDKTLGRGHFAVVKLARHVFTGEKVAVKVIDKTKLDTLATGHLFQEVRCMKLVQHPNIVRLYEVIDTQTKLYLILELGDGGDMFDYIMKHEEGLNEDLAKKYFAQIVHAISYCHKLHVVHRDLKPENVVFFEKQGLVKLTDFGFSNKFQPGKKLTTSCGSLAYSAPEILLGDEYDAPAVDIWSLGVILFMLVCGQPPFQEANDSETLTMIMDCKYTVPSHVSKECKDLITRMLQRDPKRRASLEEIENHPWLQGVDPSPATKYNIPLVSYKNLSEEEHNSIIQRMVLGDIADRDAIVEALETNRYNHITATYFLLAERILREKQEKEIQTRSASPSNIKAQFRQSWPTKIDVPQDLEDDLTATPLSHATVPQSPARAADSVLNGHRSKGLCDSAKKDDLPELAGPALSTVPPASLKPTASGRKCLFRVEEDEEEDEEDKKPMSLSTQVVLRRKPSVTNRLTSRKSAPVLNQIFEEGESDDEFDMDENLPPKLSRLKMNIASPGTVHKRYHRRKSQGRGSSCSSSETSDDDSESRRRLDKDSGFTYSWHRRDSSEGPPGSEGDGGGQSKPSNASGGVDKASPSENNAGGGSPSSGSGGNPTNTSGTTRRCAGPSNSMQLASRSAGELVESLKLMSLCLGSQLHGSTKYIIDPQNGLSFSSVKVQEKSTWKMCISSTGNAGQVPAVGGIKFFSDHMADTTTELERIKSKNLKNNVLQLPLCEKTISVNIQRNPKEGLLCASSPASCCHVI

[24] = molecular target: STE20/SPS1-related proline-alanine-rich protein kinase (Homo sapiens) (UniProt Q9UEW8); assay: Inhibition of human STK39 assessed as percent of control at 2000 nM by KINOMEscan assay relative to control; design: scale not given: the % may be the effect or the level left
[25] = molecular target: TGF-beta receptor type-1 (Homo sapiens) (UniProt P36897); assay: Inhibition of human TGFBR1 assessed as percent of control at 2000 nM by KINOMEscan assay relative to control; design: scale not given: the % may be the effect or the level left
[26] = molecular target: Serine/threonine-protein kinase tousled-like 1 (Homo sapiens) (UniProt Q9UKI8); assay: Inhibition of human TLK1 assessed as percent of control at 2000 nM by KINOMEscan assay relative to control; design: scale not given: the % may be the effect or the level left
[27] = molecular target: NT-3 growth factor receptor (Homo sapiens) (UniProt Q16288); assay: Inhibition of human TRKC assessed as percent of control at 2000 nM by KINOMEscan assay relative to control; design: scale not given: the % may be the effect or the level left
[28] = molecular target: Serine/threonine-protein kinase ULK1 (Homo sapiens) (UniProt O75385); assay: Inhibition of human ULK1 assessed as percent of control at 2000 nM by KINOMEscan assay relative to control; design: scale not given: the % may be the effect or the level left
[29] = molecular target: Tyrosine-protein kinase ZAP-70 (Homo sapiens) (UniProt P43403); assay: Inhibition of human ZAP70 assessed as percent of control at 2000 nM by KINOMEscan assay relative to control; design: scale not given: the % may be the effect or the level left
[30] = molecular target: Cyclin-dependent kinase 8/19 (Homo sapiens, UniProt P49336+Q9BWU1); settings: ST-2
Description: Inhibition of CDK8/CDK19 in ST2 cells by alkaline phosphatase activity assay

[31] = molecular target: Casein kinase I isoform delta (Homo sapiens) (UniProt P48730); settings: INHIBITOR, dose 2000.0 nM
Description: Inhibition of human CSNK1D at 2000 nM by KINOMEscan assay

SMILES: CN(C)C(=O)c1ccc(N2CCCN(c3ccnc4sc(C(N)=O)c(N)c34)CC2)cc1
- Activity [1]: 90% and 100%
- Activity [2]: 100%
- Activity [3]: 25% and 12%
- Activity [4]: 95% and 80%
- Activity [5]: 92% and 100%
- Activity [6]: 97% and 100%
- Activity [7]: 99% and 95%
- Activity [8]: 96% and 91%
- Activity [9]: 31% and 34%
- Activity [10]: 83% and 80%
- Activity [11]: 91%
- Activity ([11]; INHIBITOR): 44%
- Activity [12]: 100%
- Activity [13]: 98% and 86%
- Activity [14]: 91% and 99%
- Activity [15]: 100% and 85%
- Activity [16]: 97% and 99%
- Activity [17]: 100%
- Activity [18]: 80% and 96%
- Activity [19]: 92% and 95%
- Activity [20]: 93% and 97%
- Activity [21]: 100% and 95%
- Activity [22]: 100% and 89%
- Activity [23]: 100% and 75%
- Activity [24]: 93% and 94%
- Activity [25]: 100%
- Activity [26]: 97% and 85%
- Activity [27]: 91% and 85%
- Activity [28]: 96% and 72%
- Activity [29]: 95% and 87%
- EC200 [30]: 31.9 nM
- inhibition [31]: > 65%
